This is an account of results in patent publication US6175020A, “Spirodiamino acid scaffold for combinatorial synthesis” (Pharmacopeia, Inc., priority 1999, dated 2001).

One may read the IC50 as the concentration that inhibits the measured activity by half.

In this test the target is plasmepsin II (Plasmodium falciparum, UniProt P46925). Put plainly: Biological Assay for Plasmepsin II (EDANS fluorescence). In kind it is biochemical. The note with it: 4 nM plasmepsin II, 6 μM plasmepsin substrate, pH 5.0, 10 minutes at 25° C. As for the experimental part:
Biological Assay for Plasmepsin II
The assay mix contained 50 mM sodium acetate (pH 5.0), 1 mg/ml BSA, 0.01% Tween 20, 12.5% glycerol, 18% DMSO and 12 μM plasmepsin substrate. Twenty five μL of the assay mix is added to each well of the 96-well microtiter plate containing dried down bead eluate or empty control wells. The plates are then sonicated and mixed. Then 25 μL of 8 nM plasmepsin II which is in 50 mM sodium acetate (pH 5.0), 1 mg/ml BSA, 0.01% Tween 20, and 12.5% glycerol, is added to the assay mix. The final concentrations are 4 nM plasmepsin II, 6 μM plasmepsin substrate, 9% DMSO, 50 mM sodium acetate (pH 5.0), 1 mg/ml BSA, 0.01% Tween 20, and 12.5% glycerol. The reaction is incubated for 10 minutes at 25° C. and then quenched by the addition of 25 μL of 1 M Tris (pH 8.5) and 50% DMSO to achieve a final concentration of 0.33 M Tris and 23% DMSO. The EDANS fluorescence was measured using the Tecan, SLT FLUOSTAR® fluorescence plate reader with an excitation filter of 350 nm and an emission filter 510 nm. The background was determined by 25 μL of 50 mM sodium acetate (pH 5.0), 1 mg/ml BSA, 0.01% Tween 20, and 12.5% glycerol without enzyme. Compound 23 was active at <1 millimolar concentration.

plasmepsin II, sequence (P46925 125-453): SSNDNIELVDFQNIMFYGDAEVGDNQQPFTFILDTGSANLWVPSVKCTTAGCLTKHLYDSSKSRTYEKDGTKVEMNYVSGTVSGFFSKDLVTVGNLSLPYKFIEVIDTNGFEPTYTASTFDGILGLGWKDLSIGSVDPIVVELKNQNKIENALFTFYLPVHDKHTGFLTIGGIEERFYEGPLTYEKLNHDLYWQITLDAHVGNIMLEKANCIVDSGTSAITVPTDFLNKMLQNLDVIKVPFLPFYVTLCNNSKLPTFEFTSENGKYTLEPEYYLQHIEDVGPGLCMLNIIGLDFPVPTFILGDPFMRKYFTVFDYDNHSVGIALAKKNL

`C=CCOC(=O)N1C(CC(=O)NCCc2cc(OC)cc(OC)c2)CCC12CCCC2CNC(=O)C[C@H](O)[C@H](CC(C)C)NC(=O)OC(C)(C)C` (relative stereo) [Compound 23]: the “concentration at which compound was active” value is given as < 1 millimolar. Moreover, the half-maximal inhibitory concentration (IC50) (read-out: IC50 (plasmepsin inhibitor)) is < 1000 µM.
